Test results from PubChem BioAssay AID493240 (Broad Institute, 2011).

Tested on: SK-MEL-5 viability, ATP luminescence (CellTiter-Glo), 24 h
Assay: SK-MEL-5 parental cell viability loss, dose response, orthogonal assay for MITF inhibitor project, CellTiter-Glo, cherry-picked, set 3 (AID 493240)

## CCN1/C(=C/c2cc[n+](C)cc2)C=Cc2cc(C)ccc21
  AC50: 25.7 µM

## O=C(/C=C/Nc1ccccc1Br)c1ccccn1
  AC50: 21.9 µM

## Cc1ccc(S(=O)(=O)N2CCCCC2)cc1NC(=O)Cn1ncc(Cl)c(Cl)c1=O
  AC50: 19.3 µM

## CCCN1CCC(NCc2cn(C)nc2-c2ccc(Oc3ccccc3)cc2)CC1
  AC50: 22.3 µM

## CN1CCN(C2=C(NS(=O)(=O)c3ccccc3)C(=O)c3ccccc3C2=O)CC1
  AC50: 16.9 µM

## O=C(CCl)N1c2ccccc2SCC1c1ccccc1 (centres undefined)
  AC50: 21.3 µM

## CCN1CCN(c2ccc(Nc3ccnc4ccccc34)cc2)CC1
  AC50: 23.8 µM

## COc1ccccc1NS(=O)(=O)c1cccc(C(=O)N/N=C/c2ccc([N+](=O)[O-])o2)c1
  AC50: 17.3 µM

## CC(=O)Nc1sc(C)c(C)c1C(=O)OCC(=O)N(CC(C)C)c1c(N)n(Cc2ccccc2)c(=O)[nH]c1=O
  AC50: 8.38 µM

## Cc1ccc(NC(=O)c2ncn(CCCN[C@H](C)c3cccc4ccccc34)n2)cc1C
  AC50: 25.8 µM

## O=C(Nc1cccc(Cl)c1)Nc1cc(S(=O)(=O)N2CCCCC2)ccc1Cl
  AC50: 22.9 µM

## COc1ccccc1NC(=O)c1nc(S(=O)(=O)Cc2ccccc2)ncc1Cl
  AC50: 29.4 µM

## Cc1cc(NC(=O)c2cncc(Br)c2)ccc1NC(=O)c1cc2ccccc2o1
  AC50: 21.3 µM

## Cc1cc(C(C)(C)C)cc(C)c1Cn1c2[n+](c3ccc(C(F)(F)F)cc31)CCCCC2
  AC50: 16 µM

## COc1ccc(S(=O)(=O)Nc2ccc(O)c3ccccc23)cc1
  AC50: 14.7 µM

## Cc1ccc(C(C)C)c(OCc2nn(CC(=O)c3ccc(Cl)cc3)c3[n+]2CCCCC3)c1
  AC50: 18.4 µM

## CCOC(=O)Cn1c(=NC(=O)c2ccc([N+](=O)[O-])s2)sc2ccccc21
  AC50: 6.03 µM

## CC1=C(CC(=O)c2ccccc2)C(=O)c2ccccc2C1=O
  AC50: 7.67 µM

## CCN(CC)CCNC(=O)c1ccc(NC(=O)c2cn(-c3ccccc3)nc2-c2cccs2)cc1
  AC50: 19.9 µM

## O=C(Nc1ccc(S(=O)(=O)NC2=NCCCCC2)cc1)c1ccc([N+](=O)[O-])s1
  AC50: 23 µM

## O=C(/C=C/c1cccc([N+](=O)[O-])c1)c1cccs1
  AC50: 27.8 µM

## COc1ccc(CNCCC(c2ccc(F)cc2)c2ccc(OC)cc2)cc1 (centres undefined)
  AC50: 16.6 µM

## COc1cc2c(cc1OC)C(c1ccccc1)N(C(=O)CCl)CC2 (centres undefined)
  AC50: 22.6 µM

## COC(=O)c1ccc2c(c1O)C(=O)c1ccccc1C2=O
  AC50: 3.74 µM

## N=c1n(CC(=O)c2ccc([N+](=O)[O-])cc2)c2ccccc2n1Cc1ccc(Cl)cc1
  AC50: 16.9 µM

## CC(C)Oc1ccc(C(CCN)C2CCCCC2)cc1 (centres undefined)
  AC50: 16.2 µM

## CCc1ccc(NC2=CC(=O)C(=O)c3ccccc32)cc1
  AC50: 5.85 µM

## Cc1c(OCC(=O)NC2CC(C)(C)NC(C)(C)C2)ccc2c1oc(=O)c1ccccc12
  AC50: 23.2 µM

## CCCCN1C=CC(=C2C(=O)c3ccccc3C2=O)C=C1
  AC50: 19.9 µM

## CC1CCCC(NCC(O)COC(c2ccc(F)cc2)c2ccc(F)cc2)C1C (centres undefined)
  AC50: 20.9 µM

## Cc1cc(C)c[n+](C2=C([O-])c3ccccc3C(=O)/C2=N\S(=O)(=O)c2cccs2)c1
  AC50: 15.4 µM

## N=c1n(CC(=O)c2ccc(Br)s2)c2ccccc2n1Cc1ccccc1
  AC50: 20 µM

## C#CC(=O)N(c1ccc(OC)cc1OC)C(C(=O)NC1CCCC1)c1cccs1 (centres undefined)
  AC50: 19.9 µM

## O=C(/C=C/c1ccc(Cl)c([N+](=O)[O-])c1)c1ccc(O)cc1
  AC50: 27.3 µM

## O=C(N/N=C/c1ccc([N+](=O)[O-])o1)c1ccc(O)cc1
  AC50: 16.7 µM

## O=C(CCl)N(c1ccccc1)C1CCS(=O)(=O)C1 (centres undefined)
  AC50: 29.9 µM

## O=C(COc1ccccc1)N/N=C/c1ccc([N+](=O)[O-])o1
  AC50: 22.9 µM

## COc1ccc(C(=O)/C=C/C(=O)N(CC(=O)NC2CCCCC2)Cc2ccc(F)cc2)c(O)c1
  AC50: 12.8 µM

## COc1ccc(C(=O)/C=C/C(=O)N(CC(=O)NC2CCCCC2)CC2CCCO2)c(O)c1 (centres undefined)
  AC50: 11.9 µM

## N=c1n(CCN2CCCC2)c2ccccc2n1CC(O)c1ccc(Cl)c(Cl)c1 (centres undefined)
  AC50: 16.3 µM

## COc1ccc2nc(C)cc(NCc3cccc(C(F)(F)F)c3)c2c1
  AC50: 27.9 µM

## CCNC1=C(Cl)C(=O)c2ccccc2C1=O
  AC50: 9.44 µM

## CCN(CC)CCC(=O)N1C/C(=C/c2ccccc2)C(=O)/C(=C\c2ccccc2)C1
  AC50: 24 µM

## CN(C)S(=O)(=O)c1ccc(-c2csc(N/N=C/c3ccco3)n2)cc1
  AC50: 16.2 µM

## O=C(Cn1ncc(Cl)c(Cl)c1=O)NC1CCCCC1
  AC50: 20.5 µM

## Cc1ccc(NC(=O)CCl)cc1S(=O)(=O)N1CCCCCC1
  AC50: 28.3 µM

## CN(C)CCNC(=O)/C(=C/c1ccc(-c2ccc(Cl)cc2Cl)o1)NC(=O)c1ccccc1
  AC50: 19.4 µM

## Cc1ccccc1OCc1n(CC(=O)OC2CC(C)CCC2C(C)C)c2ccccc2[n+]1C (centres undefined)
  AC50: 15.8 µM

## Cc1nc2ccccc2n1/N=C/c1ccc([N+](=O)[O-])s1
  AC50: 7.45 µM

## O=C(Nc1ccc(N2CCN(C(=O)c3ccccc3)CC2)cc1)c1ccc([N+](=O)[O-])o1
  AC50: 28.3 µM

## N/C(=N\OC(=O)c1ccccc1Cl)c1ccccn1
  AC50: 28.8 µM

## Cc1cc(/C=C2\Sc3ccccc3N2C)cc(C)[n+]1CC1CCCO1 (centres undefined)
  AC50: 10 µM

## O=C(Cn1ncc(Cl)c(Cl)c1=O)N1CCc2ccccc21
  AC50: 22.6 µM

## Cn1nnnc1Sc1ncnc2scc(-c3ccc(C#N)cc3)c12
  AC50: 18.7 µM

## Cc1ccc(Oc2c(C(N)=O)cc([N+](=O)[O-])cc2[N+](=O)[O-])cc1
  AC50: 21.8 µM

## CCSCCc1nnc(NC(=O)Nc2cccc(C(F)(F)F)c2)s1
  AC50: 16.6 µM

## COc1ccc(C(=O)/C(C#N)=N/Nc2ccc([N+](=O)[O-])cc2)cc1
  AC50: 18.5 µM

## O=C(N/N=C/c1ccc([N+](=O)[O-])s1)C(O)c1ccccc1 (centres undefined)
  AC50: 35.1 µM

## Cc1cc(C)c2nc(N3CCC(C(=O)NCCCN4CC(C)CC(C)C4)CC3)sc2c1 (centres undefined)
  AC50: 18.3 µM

## CCOC(=O)c1c(C)oc2c1C(=O)c1ccccc1C2=O
  AC50: 3.37 µM

## COc1ccc(C(=O)/C=C/C(=O)N(CC(=O)NC2CCCCC2)Cc2ccccc2OC)c(O)c1
  AC50: 9.67 µM

## COc1ccc(-c2nn(-c3ccccc3)cc2/C=N/N=C(N)N)cc1OC
  AC50: 18 µM

## CCOC(=O)CCc1ccc(NC(=O)/C=C/c2ccc([N+](=O)[O-])o2)cc1
  AC50: 28.4 µM

## CC(C)Oc1ccc(C(CCNCc2ccc(O)cc2)c2ccccc2)cc1 (centres undefined)
  AC50: 16.5 µM

## CN(C)c1ccc(C2=NOC(CN3C(=O)c4ccccc4S3(=O)=O)C2)cc1 (centres undefined)
  AC50: < 0.015 µM

## COc1ccccc1C(=O)Nc1nc(-c2ccc(S(=O)(=O)N3CCOCC3)cc2)cs1
  AC50: 20.8 µM

## COc1ccccc1CNCC(O)Cn1c2ccccc2c2ccccc21 (centres undefined)
  AC50: 19 µM

## CC(C)C1CC(CCNCc2ccc(N(C)C)cc2)(c2ccccc2)CCO1 (centres undefined)
  AC50: 21.9 µM

## O=C(N/N=C/c1cccc2cccnc12)c1ccccc1O
  AC50: 32.9 µM

## CCCCN(C)CC(O)Cn1cc(/C=C/C(=O)c2cccs2)c2ccccc21 (centres undefined)
  AC50: 18.8 µM

## O=C(N/N=C/c1ccc(O)c2ncccc12)c1cccc(Br)c1
  AC50: 25.7 µM

## CC1CC2(C)Oc3ccccc3CC2C(C)C1CNCCCN(C)C (centres undefined)
  AC50: 16.2 µM

## Cc1[nH]c2ccccc2c1C(=O)CCl
  AC50: 22.1 µM

## CC(=O)c1c(C)oc2c1C(=O)c1ccccc1C2=O
  AC50: 7.62 µM

## O=C(Nc1ccccc1)NN(C(=O)CCl)c1ccccc1
  AC50: 28.7 µM

## O=C(Nc1ccc(N2CCCC2)c(Cl)c1)c1ccc([N+](=O)[O-])o1
  AC50: 29.9 µM

## COc1ccc2oc(C(=O)Nc3ccc(S(=O)(=O)N(C)C4CCN(C)CC4)cc3)c(C)c2c1
  AC50: 17.5 µM

## Cc1c(C(=O)Nc2ccc(S(=O)(=O)N(C)C3CCN(C)CC3)cc2)oc2c(Cl)cccc12
  AC50: 29.4 µM

## COC(=O)C1=C(C)N(Cc2ccccc2)C(=NCC(C)C)N[C@H]1c1cccc(C(F)(F)F)c1
  AC50: 17.4 µM

## COc1cc(NC(=O)c2[nH]cnc2C(N)=O)cc(C(=O)Nc2cccc(C(F)(F)F)c2)c1
  AC50: 18.2 µM

## Cc1oc(-c2ccc(Cl)cc2)nc1CN1CCC(C(=O)NCCCN2CCCC(C)C2)CC1 (centres undefined)
  AC50: 17.1 µM

## O=C(COc1ccc(Cl)cc1Cl)Nc1ccccn1
  AC50: 19.6 µM

## CCn1c(/C=C/N(C)c2ccccc2)[n+](CC)c2ccc(Cl)cc21
  AC50: 13.9 µM

## COCCN(CC(=O)NC1CCCCC1)C(=O)/C=C/C(=O)c1ccc(OC)cc1O
  AC50: 10.5 µM
